Ends that are not written are not given here.
Assays:
TRHR335 with OxR2 = assay: eBRET/BRET: truncated TRHR335/Rluc + tagged beta-arrestin + OxR2 as IG3; assay type: cell-based
Procedure: Cells were seeded in 6-well plates at a density of approximately 630,000 cells/well (HEK293FT) or approximately 150,000 cells/well (COS-7) and maintained at 37° C., 5% CO2 in Complete Media (DMEM containing 0.3 mg/ml glutamine, 100 IU/ml penicillin and 100 μg/ml streptomycin (Gibco)) supplemented with 10% fetal calf serum (FCS; Gibco). Transient transfections were carried out 24 h after seeding using GeneJuice (Novagen) or Metafectene (Biontex) according to manufacturer instructions. 24 h post-transfection, cells were washed with PBS, detached using 0.05% trypsin/0.53 mM EDTA, resuspended in HEPES-buffered phenol red free Complete Media containing 5% FCS and added to a poly-L-lysine-coated white microplate (Nunc). 48 h post-transfection, eBRET assays were carried out following pre-incubation of cells with EnduRen™ (Promega) at a final concentration of 30-40 μM, at 37° C., 5% CO2 for 2 h. For original BRET studies, the HEPES-buffered phenol red free Complete Media was replaced with PBS and coelenterazine h (Molecular Probes) added to a final concentration of 5 μM immediately prior to commencing the assay. […] Filtered light emissions were sequentially measured for 3-5 s in each of the ‘donor wavelength window’ (400-475 nm) and ‘acceptor wavelength window’ (>500 nm for EGFP or 520-540 nm for EYFP, Topaz (TYFP) or Venus). The BRET signal observed between interacting proteins is normalized by subtracting the background BRET ratio. […] In the following examples, the first calculation will be used, unless the signal is described as the ‘ligand-induced BRET ratio’. […] In this case, data are shown as ‘fluorescence/luminescence’ being the ratio of light emission through the ‘acceptor wavelength window’ over the 400-475 nm emission for a particular cell sample. Unless otherwise stated, BRET signals were measured in 96-well microplates.
Referring now to FIG. 9, eBRET signals were measured from cells transiently co-expressing TRHR335/Rluc and EGFP/barr1 with either OxR2 or TRHR.

[1] = test system: thyrotropin releasing hormone receptor/orexin receptor hetero-dimer/-oligomer (OxR2 with HA-TRHR); assay: eBRET: OxR2/Rluc8 + barr2/Venus + HA-TRHR as IG3; assay type: cell-based; settings: FIG. 18
Procedure: Briefly, referring to FIGS. 1 to 3, the IGs are provided in the form of the two receptors (TRHR and OxR). One of the two is attached to an RC (IG1-RC1, IG3). A second IG (IG2-RC2) is derived from a molecule that interacts with the receptors upon ligand binding (e.g. beta-arrestin, or a mutant thereof).
Cells were seeded in 6-well plates at a density of approximately 630,000 cells/well (HEK293FT) or approximately 150,000 cells/well (COS-7) and maintained at 37° C., 5% CO2 in Complete Media (DMEM containing 0.3 mg/ml glutamine, 100 IU/ml penicillin and 100 μg/ml streptomycin (Gibco)) supplemented with 10% fetal calf serum (FCS; Gibco). […] Filtered light emissions were sequentially measured for 3-5 s in each of the ‘donor wavelength window’ (400-475 nm) and ‘acceptor wavelength window’ (>500 nm for EGFP or 520-540 nm for EYFP, Topaz (TYFP) or Venus). […] In this case, data are shown as ‘fluorescence/luminescence’ being the ratio of light emission through the ‘acceptor wavelength window’ over the 400-475 nm emission for a particular cell sample. Unless otherwise stated, BRET signals were measured in 96-well microplates.
Referring now to FIG. 18, eBRET signals were measured from cells transiently co-expressing OxR2/Rluc8 and barr2/Venus either with HA-TRHR or pcDNA3.

[2] = TRHR335/Rluc + EGFP/barr1 + OxR2, FIG. 9

| Compound | eBRET signal (TRHR335 with OxR2; [2]) | BRET signal (dose response) (TRHR335 with OxR2; TRHR335/Rluc + barr2/Venus + OxR2, FIG. 15) | eBRET signal reached (ligand-induced BRET ratio) ([1]; gradual increase over time) | time for eBRET signal to reach plateau (TRHR335 with OxR2; [2]) | time to eBRET signal peak [1] |
| --- | --- | --- | --- | --- | --- |
| NC(=O)[C@@H]1CCCN1C(=O)[C@H](Cc1cnc[nH]1)NC(=O)[C@@H]1CCC(=O)N1 [TRH, pGlu-His-Pro-NH2] | no eBRET signal above baseline | does not result in a BRET signal | 0.05 | – | – |
| OxA: orexin A; known orexin receptor modulator, used as IG3 ligand (modulator) (QPLPDCCRQKTCSCRLYELLHGAGNHAAGILTL; ends and bridges not checked; cysteine pairing not given here; UniProt O43612 34-66, looked up) | – | – | – | about 20 minutes | ≤ 5 min |

— US20100234417A1, “THYROTROPIN RELEASING HORMONE RECEPTOR-OREXIN RECEPTOR HETERO-DIMERS/-OLIGOMERS” (DIMERIX BIOSCIENCE PTY LTD., priority 2006, published 2010)
